According to US20180044734A1, “COMPOSITION FOR DIAGNOSING SKIN DAMAGE CAUSED BY FINE DUST, AND COMPOSITION COMPRISING GALANGIN AS ACTIVE INGREDIENT” (AMOREPACIFIC CORPORATION, priority 2015, published 2018):

Experiments:
[1] = test system: microdust-treated normal human keratinocytes; test: Real-time RT-PCR of microdust-responsive genes in microdust-treated keratinocytes treated with galangin; assay type: cell-based; details: microdust 2.5 μm 12.5 μg in 1 mL, galangin 0.25-2 μM, 24 hours
Protocol: The normal human keratinocytes cultured in Example 2 were treated 12.5 μg of the microdust with a particle diameter of 2.5 μm extracted in Example 1 in 1 mL of a cell culture medium and relative mRNA expression level was measured using the primers described in Tables 5 and 6 (TaqMan® primers, Applied Biosystems).
The microdust-treated normal human keratinocytes or the normal human keratinocytes cultured in Example 2 but not treated with microdust were treated with galangin at different concentrations (0.25 μM, 0.5 μM, 1 μM and 2 μM). 24 hours later, the culture medium was removed and the cells were washed with 2 mL of phosphate-buffered saline (PBS). Then, RNA was isolated from the cells using TRIzol reagent (Invitrogen, Carlsbad, Calif., USA). For S100A8, S100A9, CYP1A1, CYP1B1, PI3, IL36G, IL1B, CCL27, IL8, NOX6, XDH, CXCL14, H19, CASP14 and CASP8, expression level was measured after treating with 0.25 μM galangin. The galangin was purchased commercially from Nanjing Chemlin Chemical (CAS No. 548-83-4). The isolated RNA was purified once again with Qiagen RNA kit Qiagen, Valencia, Calif.) and the quality of RNA was determined using Agilent 2100 BioAnalyzer (Agilent Technologies, Santa Clara, Calif., USA). cDNA synthesized from the RNA using SuperScript reverse transcriptase (RT) kit (Invitrogen, Carlsbad, Calif.) was quantitatively analyzed by real time-reverse transcription polymerase chain reaction (Q-RT-PCR) using the primers described in Tables 5 and 6. The change in gene expression pattern was evaluated in real time using TaqMan gene expression assay kit (Applied Biosystems, Foster City, Calif.). The Q-RT-PCR and real-time PCR were conducted in accordance with the standard protocols of Life Technologies, specifically, 95° C. for 20 seconds followed by 40 cycles of 95° C. for 3 seconds and 60° C. for 30 seconds.

[2] = test system: filaggrin, keratin 10, keratin 1, keratin 13 and keratin 15 mRNA in normal human keratinocytes; test: Real-time PCR of gene expression in normal keratinocytes upon treatment with galangin; assay type: cell-based; details: cells not treated with microdust; galangin 0, 0.5, 1, 2 μM, 24 hours
Protocol: After treating the normal human keratinocytes cultured in Example 2 with galangin at different concentrations (0 μM, 0.5 μM, 1 μM and 2 μM), the relative mRNA expression level of filaggrin, keratin 10, keratin 1, keratin 13 and keratin 15 was measured.
24 hours after the treatment with galangin, the culture medium was removed and the cells were washed with 2 mL of phosphate-buffered saline (PBS). Then, RNA was isolated from the cells using TRIzol reagent (Invitrogen, Carlsbad, Calif., USA).
Subsequently, the change in gene expression was evaluated by real-time PCR in the same manner as in Example 5. For filaggrin, TaqMan® Hs00856927_g1 was used as the primer.

[3] = test system: normal human keratinocytes; test: Differentiation of keratinocytes under optical microscope; assay type: cell-based; details: cells not treated with microdust; galangin 0, 1, 2 μM, 24 hours
Protocol: The normal human keratinocytes cultured in Example 2 were treated with galangin at different concentrations (0 μM, 1 μM and 2 μM). 24 hours later, the culture medium was removed and the degree of differentiation of the keratinocytes was observed under an optical microscope (Olympus IX71, x40 and x200).

[4] = test system: filaggrin protein; test: Filaggrin protein expression by blotting with filaggrin antibody; assay type: cell-based, human; details: galangin 0, 0.5, 1, 2 μM, 24 hours; normalized to β-actin
Protocol: The normal human keratinocytes cultured in Example 2 were treated with galangin at different concentrations (0 μM, 0.5 μM, 1 μM and 2 μM). 24 hours later, the culture medium was removed and the cells were washed with 2 mL of phosphate-buffered saline (PBS). After adding cell lysis buffer and vortexing, proteins were quantified from the obtained supernatant. The proteins obtained from the epidermis of normal skin and dry skin were loaded on SDS gel and then blotted using the filaggrin antibody (Covance, France). The quantification result was normalized to that of β-actin (Sigma, USA).

O=c1c(O)c(-c2ccccc2)oc2cc(O)cc(O)c12 [galangin]
expression of genes whose expression is increased in skin cells stimulated by microdust ([1]; FIGS. 2a-2k): decreased expression
expression of genes increased or decreased in skin cells stimulated by microdust ([1]; FIGS. 2 and 3): returned to the normal level
expression of genes whose expression is decreased in skin cells stimulated by microdust ([1]; FIGS. 3a-3k): increased expression
relative mRNA expression level of filaggrin [2]: increased expression with increasing galangin concentration
relative mRNA expression level of keratin 1 [2]: increased expression with increasing galangin concentration
relative mRNA expression level of keratin 10 [2]: increased expression with increasing galangin concentration
relative mRNA expression level of keratin 13 [2]: increased expression with increasing galangin concentration
relative mRNA expression level of keratin 15 [2]: increased expression with increasing galangin concentration
degree of differentiation of the keratinocytes [3]: active differentiation with increasing galangin concentration
expression of filaggrin protein [4]: increased with increasing galangin concentration
